ChEMBL document CHEMBL1201862, “PubChem BioAssay data set” (2004)
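These data come from cells grown in 96-well plates and exposed to compound for 48 hours at five concentrations. GI50 = concentration required for 50% inhibition of growth.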 Calls of active or inactive are those of the source. Cut-off read from the data, not from the text of the source: active = GI50 up to about 1.1 µM and inactive = higher.

Experiments:
Assay in all cases: NCI tumour cell line growth inhibition, 48 h
[1] = tested on: HT-29
[2] = tested on: OVCAR-3
[3] = tested on: UACC-62
[4] = tested on: IGROV-1
[5] = tested on: SK-MEL-28
[6] = tested on: OVCAR-8
[7] = tested on: NCI-H226
[8] = tested on: K562
[9] = tested on: DMS-273
[10] = tested on: NCI-H23
[11] = tested on: HCT-116
[12] = tested on: OVCAR-5
[13] = tested on: RPMI-8226
[14] = tested on: HL-60
[15] = tested on: SNB-75
[16] = tested on: U-251
[17] = tested on: PC-3
[18] = tested on: SK-MEL-5
[19] = tested on: MDA-MB-231
[20] = tested on: Hs-578T

Measured: GI50

CC1CCCc2c1c1ccc3c(O)cccc3c1oc2=O (stereo not given)
inactive: [1] > 100 µM | [2] 64.1 µM | [3] 35.1 µM | [4] 39.6 µM | [5] > 100 µM | [6] 31.3 µM | [7] > 100 µM | [8] > 100 µM | [9] 31.1 µM | [10] 29.9 µM | [11] 91.8 µM | [12] 71.8 µM | [13] 55.1 µM | [14] > 100 µM | [15] 8.15 µM | [16] 33.8 µM

N#CCN1CCCN(CC#N)CCN(CC#N)CCCN(CC#N)CC1
inactive: [1] > 10 µM | [2] > 100 µM | [3] > 100 µM | [17] > 100 µM | [18] > 100 µM | [4] > 100 µM | [5] > 100 µM | [6] > 100 µM | [7] > 100 µM | [8] > 100 µM | [19] > 100 µM | [10] > 100 µM | [20] > 100 µM | [11] > 100 µM | [12] > 100 µM | [13] 54.5 µM | [14] 43.8 µM | [15] > 100 µM | [16] > 100 µM

CC1=CP(=O)(c2ccccc2)C=C(C)C1=C(Cl)Cl (stereo not given)
inactive: [1] 3.55 µM | [2] 16 µM | [3] 6.43 µM | [18] 4.67 µM | [4] 17.3 µM | [5] 11.2 µM | [6] 10.9 µM | [7] 3.19 µM | [8] 3.21 µM | [9] 3.3 µM | [10] 17.4 µM | [11] 3.2 µM | [13] 2.5 µM | [14] 2.12 µM | [15] 4.83 µM | [16] 6.71 µM

CCO/S(=N/S(=O)(=O)c1ccccc1)c1ccccc1[N+](=O)[O-] (stereo not given)
inactive: [1] > 100 µM | [2] > 100 µM | [3] > 100 µM | [18] > 100 µM | [4] > 100 µM | [5] > 100 µM | [6] > 100 µM | [7] > 100 µM | [8] > 100 µM | [9] > 100 µM | [10] > 100 µM | [12] > 100 µM | [13] > 100 µM | [15] > 100 µM | [16] > 100 µM

O=C1C2Nc3ccccc3SC2C(=O)N1c1ccc(Br)cc1 (stereo not given)
inactive: [1] 36.1 µM | [2] 23.7 µM | [3] 20 µM | [18] 16.2 µM | [4] 53.1 µM | [5] 62.2 µM | [6] 37.4 µM | [7] 7.24 µM | [8] 21.9 µM | [9] 21.6 µM | [10] 36.5 µM | [12] > 100 µM | [13] 13.1 µM | [14] > 10 µM | [15] 24.5 µM

CCOC(=O)NC(=O)c1cn(C2CCCCC2)c(=O)[nH]c1=O
inactive: [1] 6.67 µM | [2] > 100 µM | [3] 40 µM | [4] 54.8 µM | [5] > 100 µM | [6] > 100 µM | [7] > 100 µM | [8] 4.9 µM | [9] 73.3 µM | [10] > 100 µM | [11] 5.11 µM | [12] > 100 µM | [13] 63.5 µM | [14] 7.53 µM | [16] 56.8 µM

N#CCc1nc2c(s1)C(=O)c1ccccc1C2=O
inactive: [1] 22.8 µM | [2] 15.8 µM | [3] 13.1 µM | [18] 11.4 µM | [4] 3.76 µM | [5] 18.2 µM | [6] 10.8 µM | [7] 19.8 µM | [8] 11.8 µM | [9] 15.8 µM | [10] 17.5 µM | [11] 14.3 µM | [12] 22.6 µM | [13] 5.37 µM | [15] 23.1 µM | [16] 17.3 µM

CCOC(=O)NC(=O)c1cn(CCCOC(=O)NCCCCCCNC(=O)OCCCn2c(=O)c(C(=O)NC(=O)OCC)cn(C)c2=O)c(=O)n(C)c1=O
inactive: [1] > 100 µM | [2] > 100 µM | [3] > 100 µM | [4] > 100 µM | [5] > 100 µM | [6] > 100 µM | [7] > 100 µM | [8] > 100 µM | [9] > 100 µM | [10] > 100 µM | [11] > 100 µM | [12] > 100 µM | [13] > 100 µM | [14] > 100 µM | [15] 22.2 µM | [16] 61.2 µM

CCOC(=O)C(=O)Nc1nc2ccc(OC)cc2s1
inactive: [1] > 100 µM | [2] > 100 µM | [3] > 100 µM | [18] > 100 µM | [4] > 100 µM | [5] > 100 µM | [6] > 100 µM | [7] > 100 µM | [8] > 100 µM | [9] > 100 µM | [10] > 100 µM | [12] > 100 µM | [13] > 100 µM | [14] > 100 µM | [15] > 100 µM | [16] > 100 µM

Nc1ncnc2c1ncn2C1(CO)OC(CO)C(O)C1O (stereo not given)
inactive: [1] > 100 µM | [18] > 100 µM | [5] > 100 µM | [7] > 100 µM | [9] > 100 µM | [10] > 100 µM | [11] > 100 µM | [12] > 100 µM | [13] > 100 µM | [14] > 100 µM | [15] > 100 µM | [16] > 100 µM

Clc1cc2nc[nH]c2cc1Cl
inactive: [1] > 100 µM | [2] > 100 µM | [3] 76 µM | [4] > 100 µM | [5] > 100 µM | [6] > 100 µM | [7] 36.7 µM | [8] > 100 µM | [9] > 100 µM | [10] > 100 µM | [12] > 100 µM | [13] > 100 µM | [14] > 100 µM | [15] 18.3 µM | [16] > 100 µM

COc1cc2c3c(c1O)C1(C=CC(=O)C=C1)CC3N(C)CC2 (stereo not given) [GLAZIOVINE]
inactive: [1] 8.95 µM | [2] 5.37 µM | [3] 11.1 µM | [17] 14.3 µM | [18] 14 µM | [4] 6.22 µM | [5] 13.2 µM | [6] 10.4 µM | [7] 22 µM | [8] 5.2 µM | [19] 4.86 µM | [10] 11.2 µM | [20] 14.4 µM | [11] 3.81 µM | [12] 19.3 µM | [13] 14.8 µM | [14] 2.79 µM | [15] 4.57 µM | [16] 4.26 µM
